Experiments:
Assay type in all cases: in vivo, human
[1] = Cooling intensity: panelists taste aqueous solutions, compared with menthol at 2 ppm; details: tasted by small group of panelists
[2] = Application in chewing gum: cooling perception after chewing; details: for Cooling perception rated higher than the control: chewing gum with 0.05 g compound plus 0.50 g peppermint oil versus peppermint oil control; for Cooling sensation felt by the panelist in all areas of the mouth: chewing gum with 0.50 g peppermint oil; for Cooling sensation felt by the panelist in all areas of the mouth / Duration of cooling perception: test compound 0.05 g, 2 g piece chewed 20 min; for Duration of cooling perception: chewing gum, 0.50 g peppermint oil
Description: The gum base and half of the sorbitol were mixed, maltitol syrup was added and the mixed with the gum mass. The rest of powder (rest of sorbitol, mannitol, potassium acesulfame, aspartame) were added and mixed for about 1 minute, when glycerine was added and the gum mass was mix for about 5 minutes, to form the blank chewing gum mass. Peppermint oil was worked into the mass and a piece of the resulting gum (2 g) is chewed by the panelist for 20 min and spat out. […] The cooling perception lasts for 50 minutes.
The chemical and peppermint oil was worked into the blank chewing gum mass from Example 12 a) and a piece of the resulting gum (2 g) is chewed by the panelist for 20 minutes and spat out.
The chemical and peppermint oil was worked into the blank chewing gum mass from Example 12a) and a piece of the resulting gum (2 g) is chewed by the panelist for 20 minutes and spat out.

[3] = Application in toothpaste: cooling perception after brushing; details: for Cooling sensation felt by the panelist in all areas of the mouth: opaque toothgel with 0.50 g peppermint oil and 0.30 g saccharin, teeth brushed, mouth rinsed; for Cooling sensation felt by the panelist in all areas of the mouth / Duration of cooling perception: test compound 0.05 g per 100 g; for Cooling perception rating versus control: toothgel with 0.05 g compound plus 0.50 g peppermint oil versus peppermint oil control; for Duration of cooling perception: toothgel, 0.50 g peppermint oil
Description: The chemicals are mixed in the toothgel, a piece of toothgel is put on a toothbrush and a panelist's teeth are brushed. The mouth is rinsed with water and the water is spat out. […] The cooling perception lasts for 40 minutes.
The chemicals are mixed in the toothgel, a piece of toothgel is put on a toothbrush and a panelist's teeth are brushed. The mouth is rinsed with water and the water is spat out.

Compound | Concentration with cooling intensity similar to or slightly higher than a solution of menthol at 2 ppm [1] | Cooling perception rated higher than the control [2] | Cooling sensation felt by the panelist in all areas of the mouth [2] | Duration of cooling perception [2] | Cooling sensation felt by the panelist in all areas of the mouth [3] | Cooling perception rating versus control [3] | Duration of cooling perception [3]
CC(C)[C@@H]1CC[C@@H](C)C[C@H]1C(=O)CCCc1ccccn1 [Example 3, 1-((1R,2S,5R)-2-isopropyl-5-methylcyclohexyl)-4-(pyridin-2-yl)butan-1-one] | 0.01 ppm |  |  |  |  |  | 
CC(C)[C@@H]1CC[C@@H](C)C[C@H]1O [l-Menthol, reference compound] | 2.0 ppm |  |  |  |  |  | 
CCNC(=O)C1CC(C)CCC1C(C)C (stereo not drawn) [WS-3, N-ethyl p-menthanecarboxamide, reference compound] | 1.5 ppm |  |  |  |  |  | 
CC(C)C(C)(C(=O)CCCc1ccccc1)C(C)C [Example 4, 5-isopropyl-5,6-dimethyl-1-phenylheptan-4-one] | 3.0 ppm |  |  |  |  |  | 
CC(C)[C@@H]1CC[C@@H](C)C[C@H]1C(=O)CCCc1ccccc1 [Example 2, 1-((1R,2S,5R)-2-isopropyl-5-methylcyclohexyl)-4-phenylbutan-1-one] | 2.0 ppm | 49% | cooling sensation | over 60 minutes | intense cooling sensation | higher then the control | 70 min
CCCC(=O)[C@@H]1C[C@H](C)CC[C@H]1C(C)C [Example 1, 1-((1R,2S,5R)-2-isopropyl-5-methylcyclohexyl)butan-1-one] | 2.0 ppm | 49% | cooling sensation | over 60 minutes | intense cooling sensation | higher then the control | 72 min

Source: US7935848B2, “Butone derivatives useful as cooling agents” (Givaudan S.A., priority 2007, dated 2011)
